# Read-outs that look alike come from different tables or passages of the source.
# How the values were obtained:
# [1] = test system: SW480 colon carcinoma cells; test: Cell viability assay (CellTiter-Glo) in SW480 cells; type: cell-based, human; settings: Homo sapiens; for EC50: 96 h, cell viability, SW480 cells, four days, CellTiter-Glo; for inhibition at 10 µM: SW480, read-out: percent inhibition at 10 μM;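 on all read-outs here: SW480 cells stably carrying an Sp5-luciferase TCF/LEF reporter, luminescent ATP signal as viability measure, DMSO-treated cells as control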
# IL-6 = IL-6 inhibition in LPS-stimulated human peripheral blood mononuclear cells (HTRF); type: cell-based; settings: Homo sapiens, PBMC; for EC50: IL-6, LPS-stimulated huPBMCs, HTRF
# Method: Fresh Normal PB MNC (Catalog # PB001, AllCells, Alameda, Calif.) were shipped overnight at 4° C. and resuspended in Roswell Park Memorial Institute (RPMI) 1640 Medium, with GlutaMAX Supplement (Catalog #61870127, ThermoFisher Scientific, Waltham, Mass.) supplemented with 1% Penicillin-Streptomycin (Catalog #151401633 ThermoFisher Scientific, Waltham, Mass.) and 1% fetal bovine serum (FBS) (Catalog #16140089, ThermoFisher Scientific, Waltham, Mass.) assay media.
# Fresh normal human peripheral blood mononuclear cells (huPBMCs) were resuspended in 1% FBS-RPMI assay media with 1% Penicillin-Streptomycin 1% to a cell concentration of 1×10e6 cells/mL. Each compound was dissolved in DMSO (Catalog # D8418-100 ml, Sigma-Aldrich, St. Louis, Mo.) as a 10 mM stock and used to prepare compound source plates. Serial dilution (1:3, 10-point dose-response curves starting from 10 μM) and compound transfer was performed using the ECHO 550 (Labcyte, Sunnyvale, Calif.) into 384-well white Proxiplate-Plus assay plates (Catalog #6008289, PerkinElmer, Shelton, Conn.) with appropriate DMSO backfill for a final DMSO concentration of 0.25%. huPBMCs were plated at 5000 cells/well in the 384-well Proxiplate-Plus assay plates and incubated at 37° C.-5% CO2 for 2 hours. 50 ng/mL of Lipopolysaccharides from Escherichia coli 0111:B4 (Catalog # L5293-2 ML, Sigma-Aldrich, St. Louis, Mo.) was added after 2 hours and cells were incubated for another 22 hours at 37° C.-5% CO2. After 22 hour incubation, a mixture of anti-IL6 XL665 and anti-IL-6 Cryptate diluted in reconstitution buffer (Catalog #62IL6PEC, Cisbio Inc., Bedford, Mass.) was added to each well. Following incubation for 3 hours at room temperature, Homogeneous Time-Resolved Fluorescence (HTRF) was measured using the Envision (Perkin Elmer, Shelton, Conn.) at 665 nm and […]. The ratio of fluorescence at 665 nm to 620 nm was used as a readout for IL-6 quantification. All samples were processed in duplicate. Readings were normalized to DMSO treated cells and normalized activities were utilized for EC50 calculations. EC50 was determined using software generated by Dotmatics Limited (Windhill Bishops Stortford Herts, UK) using the Levenberg-Marquardt 4 parameter fitting procedure with finite different gradients.
# [2] = test system: LL29 cells (primary human fibroblasts derived from IPF patients), α-smooth muscle actin; test: Inhibition of fibrotic process: αSMA in TGF-β1-treated primary human fibroblasts from IPF patients (LL29 cells); type: cell-based; settings: Homo sapiens, Fibroblast; for EC50: 96 h, % αSMA-positive LL29 cells, TGF-β1 20 ng/mL, 4 days; for inhibition at 10 µM: read-out: percent inhibition at 10 μM
# Description: Representative compounds were screened using primary human fibroblasts (derived from IPF patients) treated with TGF-β1 to determine their ability to inhibit the fibrotic process.
# Primary human fibroblasts derived from IPF patients (LL29 cells) [^1Xiaoqiu Liu, et. al., “Fibrotic Lung Fibroblasts Show Blunted Inhibition by cAMP Due to Deficient cAMP Response Element-Binding Protein Phosphorylation”, Journal of Pharmacology and Experimental Therapeutics (2005), 315(2), 678-687; ^2Watts, K. L., et. al., “RhoA signaling modulates cyclin D1 expression in human lung fibroblasts; implications for idiopathic pulmonary fibrosis”, Respiratory Research (2006), 7(1), 88] were obtained from American Type Culture Collection (ATCC) and expanded in F12 medium supplemented with 15% Fetal Bovine Serum and 1% Penicillin/Streptomycin.
# Each compound was dissolved in DMSO as a 10 mM stock and used to prepare compound source plates. Serial dilution (1:2, 11-point dose-response curves from […] to 0.94 nM) and compound transfer was performed using the ECHO 550 (Labcyte, Sunnyvale, Calif.) into 384-well clear bottom assay plates (Greiner Bio-One) with appropriate DMSO backfill for a final DMSO concentration of 0.1%. LL29 cells were plated at 1,500 cells/well in 70 μL/well F12 medium supplemented with 1% Fetal Bovine Serum. TGF-β1 (Peprotech; 20 ng/mL) was added to the plates to induce fibrosis (ref. 1 and 2 above). Wells treated with TGF-31 and containing DMSO were used as positive control, and cells with only DMSO were negative control. Cells were incubated at 37° C. and 5% CO2 for 4 days. Following incubation for 4 days, SYTOX green nucleic acid stain (Life Technologies [Thermo Fisher Scientific]) was added to the wells at a final concentration of 1 μM and incubated at room temperature for 30 min. Cells were then fixed using 4% formaldehyde (Electron Microscopy Sciences), washed 3 times with PBS followed by blocking and permeabilization using 3% Bovine Serum Albumin (BSA; Sigma) and 0.3% Triton X-100 (Sigma) in PBS. Cells were then stained with antibody specific to α-smooth muscle actin (αSMA; Abcam) (ref. 1 and 2 above) in 3% Bovine Serum Albumin (BSA; Sigma) and 0.3% Triton X-100 (Sigma) in PBS, and incubated overnight at 4° C. Cells were then washed 3 times with PBS, followed by incubation with Alexa Flor-647 conjugated secondary antibody (Life Technologies [Thermo Fisher Scientific]) and DAPI in 3% Bovine Serum Albumin (BSA; Sigma) and 0.3% Triton X-100 (Sigma) in PBS at room temperature for 1 hour. Cells were then washed 3 times with PBS and plates were sealed for imaging. αSMA staining was imaged by excitation at 630 nm and emission at 665 nm and quantified using the Compartmental Analysis program on the CellInsight CX5 (Thermo Scientific). Dead or apoptotic cells were excluded from analysis based on positive SYTOX green staining. % of total cells positive for αSMA were counted in each well and normalized to the average of 11 wells treated with TGF-β1 on the same plate using Dotmatics' Studies Software.
# [3] = test system: Wnt activity (Sp5-Luc reporter in SW480 colon carcinoma cells); test: Wnt activity screening assay (Sp5-Luc reporter gene assay); type: cell-based, human; settings: Homo sapiens; for EC50: Sp5-Luc reporter, SW480 cells, 36 to 48 hours; for inhibition at 10 µM: SW480, read-out: percent inhibition at 10 μM
# Description: The screening assay for Wnt activity is described as follows. Reporter cell lines can be generated by stably transducing cancer cell lines (e.g., colon cancer) or primary cells (e.g., IEC-6 intestinal cells) with a lentiviral construct that includes a Wnt-responsive promoter driving expression of the firefly luciferase gene.
# SW480 colon carcinoma cells were transduced with a lentiviral vector expressing luciferase with a human Sp5 promoter consisting of a sequence of eight TCF/LEF binding sites. SW480 cells stably expressing the Sp5-Luc reporter gene and a hygromycin resistance gene were selected by treatment with 150 μg/mL of hygromycin for 7 days. These stably transduced SW480 cells were expanded in cell culture and used for all further screening activities. Each compound was dissolved in DMSO as a 10 mM stock and used to prepare compound source plates. Serial dilution (1:3, 10-point dose-response curves starting from 10 μM) and compound transfer was performed using the ECHO 550 (Labcyte, Sunnyvale, Calif.) into 384-well white solid bottom assay plates (Greiner Bio-One) with appropriate DMSO backfill for a final DMSO concentration of 0.1%. For Sp5-Luc reporter gene assays, the cells were plated at 4,000 cells/well in 384-well plates with a DMEM medium containing 1% fetal bovine serum, and 1% Penicillin-Streptomycin and incubated for 36 to 48 hours at 37° C. and 5% CO2. Following incubation, 15 μl of BriteLite Plus luminescence reagent (Perkin Elmer) was added to each well of the 384-well assay plates. The plates were placed on an orbital shaker for 2 min and then luminescence was quantified using the Envision (Perkin Elmer) plate reader. Readings were normalized to DMSO only treated cells, and normalized activities were utilized for EC50 calculations using the dose-response log (inhibitor) vs. response -variable slope (four parameters) nonlinear regression feature available in GraphPad Prism 5.0 (or Dotmatics).
# DYRK1A kinase = DYRK1A kinase (Homo sapiens (Human), UniProt Q13627); test: DYRK1A kinase assay (Ser/Thr 18 peptide Z-lyte, FRET)
# [4] = test system: Tau phosphorylation at Ser396 (pSer396), SH-SY5Y cells; test: Tau phosphorylation at Ser396 (pSer396) in SH-SY5Y cells, ELISA/western blot; type: cell-based, human; settings: Homo sapiens; SH-SY5Y cells, overnight (16-18 h); read-out: pSer396 Tau EC50;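 further: cell lysates probed for reduced Tau pSer396 via ELISA (colorimetric) or western blot (chemiluminescence), both with one shared pSer396 antibody, EC50 for lowering phosphorylation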
# Method: Two days before treatment, cells were seeded onto 96 well plates at 5×10^4 cells/well.
# Wells were visually checked for cell death or change in morphology and supernatants were tested for cytotoxicity by measurement of lactate dehydrogenase release (LDH, CytoToxOne kit, Promega) if necessary.
# Cells were lysed with RIPA buffer complemented with phosphatase and protease inhibitors then lysates were spun down at 12,000 g for 10 min to remove any cellular debris. Lysates are then either directly tested for pSer396 by ELISA (Life Technology, Kit KHB7031) or loaded on NuPage Bis-Tris gels for western blot analysis. Colorimetric detection of ELISA signal is performed by Cytation3 plate reader (Biotek) and the chemiluminescence signal for HRP-linked antibodies used in western blotting is detected using a Carestream Image Station. The same pSer396 antibody is used for detection of pTau in both assays.
# GSK3β kinase = GSK3β kinase (Homo sapiens (Human), UniProt P49841); test: GSK3β kinase assay (Ser/Thr 09 peptide Z-lyte, FRET); type: biochemical; settings: method text calls the value IC50;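 further: Coumarin/fluorescein emission ratio converted to percent phosphorylation against unphosphorylated (0%) and phosphorylated (100%) controls, 1 h compound incubation at room temperature, 11-point threefold dilutions from 10 µM, run in duplicate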
# GSK3β kinase, sequence (P49841 whole entry): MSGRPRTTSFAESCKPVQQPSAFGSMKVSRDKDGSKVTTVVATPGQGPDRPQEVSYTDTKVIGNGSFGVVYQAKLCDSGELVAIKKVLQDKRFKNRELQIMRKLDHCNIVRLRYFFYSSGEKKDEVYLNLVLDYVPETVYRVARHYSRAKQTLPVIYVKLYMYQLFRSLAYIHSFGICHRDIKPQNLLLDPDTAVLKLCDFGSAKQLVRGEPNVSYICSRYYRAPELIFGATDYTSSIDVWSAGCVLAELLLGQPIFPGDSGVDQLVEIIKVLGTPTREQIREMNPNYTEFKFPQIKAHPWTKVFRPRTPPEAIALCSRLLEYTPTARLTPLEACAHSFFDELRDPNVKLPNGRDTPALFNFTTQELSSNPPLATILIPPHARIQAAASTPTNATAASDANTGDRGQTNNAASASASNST
# [5] = DYRK1A kinase, method text calls the value IC50
SMILES,EC50 [1],EC50 (IL-6),EC50 [3],EC50 (DYRK1A kinase; [5]),EC50 [4],EC50 (GSK3β kinase),EC50 (DYRK1A kinase),EC50 [2],inhibition at 10 µM [1],inhibition at 10 µM [3],inhibition at 10 µM [2],inhibition at 10 µM (IL-6; read-out: percent value in parentheses below EC50 >10)
"Cn1cc(-c2cc(F)c3cnc(NC(=O)[C@H]4CC[C@H](N5CCOCC5)CC4)cc3c2)cn1 [Compound 3, trans-N-(8-Fluoro-6-(1-methyl-1H-pyrazol-4-yl)isoquinolin-3-yl)-4-morpholinocyclohexane-1-carboxamide]",6670 nM,1120 nM,1860 nM,4 nM,458 nM,131 nM,–,153 nM,–,–,–,–
"CC(C)CN1CCC(C(=O)Nc2cc3cc(-c4ccn(C)n4)ccc3cn2)CC1 [Compound 7, 1-Isobutyl-N-(6-(1-methyl-1H-pyrazol-3-yl)isoquinolin-3-yl)piperidine-4-carboxamide]",> 10000 nM,9420 nM,> 10000 nM,376 nM,–,1900 nM,–,2660 nM,42.5%,32.9%,–,–
"Cc1ncc(-c2cc(F)c3cnc(NC(=O)[C@H]4CC[C@H](N5CCOCC5)CC4)cc3c2)o1 [Compound 19, trans-N-(8-Fluoro-6-(2-methyloxazol-5-yl)isoquinolin-3-yl)-4-morpholinocyclohexane-1-carboxamide]",> 10000 nM,3220 nM,> 10000 nM,110 nM,–,1160 nM,–,> 10000 nM,44.8%,22.4%,20.6%,–
"Cc1ncc(-c2ccc3cnc(NC(=O)[C@H]4CC[C@H](N(C)C)CC4)cc3c2)o1 [Compound 45, trans-4-(Dimethylamino)-N-(6-(2-methyloxazol-5-yl)isoquinolin-3-yl) cyclohexane-1-carboxamide]",–,–,1860 nM,3 nM,320 nM,–,–,95 nM,–,–,–,–
"[2H]c1c([2H])c(C(=O)Nc2cc3cc(-c4cncn4C)ccc3cn2)c([2H])c([2H])c1F [Compound 81, 4-Fluoro-N-(6-(1-methyl-1H-imidazol-5-yl)isoquinolin-3-yl)benzamide-2,3,5,6-d4]",486 nM,1120 nM,> 10000 nM,–,2830 nM,–,–,309 nM,–,36.3%,–,–
"Cn1cc(-c2ccc3cnc(NC(=O)c4ccnc(N5CC[N+](C)([O-])CC5)c4)cc3c2)nn1 [Compound 224, 1-methyl-4-(4-((6-(1-methyl-1H-1,2,3-triazol-4-yl)isoquinolin-3-yl)carbamoyl)pyridin-2-yl)piperazine 1-oxide]",> 10000 nM,> 10000 nM,> 10000 nM,–,–,703 nM,1 nM,> 10000 nM,24.6%,43.8%,13.1%,13.7%
"Cc1ncc(-c2cc(F)c3cnc(NC(=O)N(C)C4CCN(C)CC4)cc3c2)o1 [Compound 229, 3-(8-Fluoro-6-(2-methyloxazol-5-yl)isoquinolin-3-yl)-1-methyl-1-(1-methylpiperidin-4-yl)urea]",> 10000 nM,8960 nM,> 10000 nM,1000 nM,–,6710 nM,–,9980 nM,49.5%,0%,–,–

# Stronger by EC50 [3], values ahead:
EC50 [1],EC50 (IL-6),EC50 [3],EC50 (DYRK1A kinase; [5]),EC50 [4],EC50 (GSK3β kinase),EC50 (DYRK1A kinase),SMILES,EC50 [2],inhibition at 10 µM [1],inhibition at 10 µM [3],inhibition at 10 µM [2],inhibition at 10 µM (IL-6; read-out: percent value in parentheses below EC50 >10)
4450 nM,1280 nM,799 nM,4 nM,559 nM,246 nM,–,"Cn1cc(-c2cc3cc(NC(=O)[C@H]4CC[C@H](N(C)C)CC4)ncc3cc2F)cn1 [Compound 2, trans-4-(Dimethylamino)-N-(7-fluoro-6-(1-methyl-1H-pyrazol-4-yl)isoquinolin-3-yl)cyclohexane-1-carboxamide]",150 nM,–,–,–,–
907 nM,489 nM,730 nM,4 nM,69 nM,22 nM,–,"CC(C)CN1CCC(CC(=O)Nc2cc3cc(-c4cnn(C)c4)ccc3cn2)C1 (stereo not shown) [Compound 4, 2-(1-Isobutylpyrrolidin-3-yl)-N-(6-(1-methyl-1H-pyrazol-4-yl)isoquinolin-3-yl)acetamide]",229 nM,–,–,–,–
839 nM,3040 nM,239 nM,4 nM,368 nM,107 nM,–,"Cn1cc(-c2cc(F)c3cnc(NC(=O)[C@H]4CC[C@H](N(C)C)CC4)cc3c2)cn1 [Compound 1, trans-4-(Dimethylamino)-N-(8-fluoro-6-(1-methyl-1H-pyrazol-4-yl)isoquinolin-3-yl)cyclohexane-1-carboxamide]",445 nM,–,–,–,–

# From patent US10604514B2, “6-(5-membered heteroaryl)isoquinolin-3-yl carboxamides and preparation and use thereof” (Samumed, LLC, priority 2017, dated 2020)
